Data set [1] can be described thus: Log POW, distribution coefficient between 1-octanol and water. The conditions noted are these: fluorinated surfactants used in Examples; octanol/water (1:1).
Excerpt: The Log POW is distribution coefficient between 1-octanol and water. The Log POW is represented by Log P, wherein P is the ratio of a concentration of a fluorinated surfactant in an octanol phase to a concentration of a fluorinated surfactant in a water phase when an octanol/water (1:1) mixture containing a fluorinated surfactant is phase-separated.
The conditions of data set [2]: PFOA, stated in description as comparison; cited from earlier work.

Structures are written as SMILES. Like-named read-outs stand apart in the source and are kept apart here.

The source of these data is patent publication US11827724B2, “Polytetrafluoroethylene and method for producing same” (DAIKIN INDUSTRIES, LTD., priority 2009, dated 2023).

Take `N.O=C(O)C(F)(OC(F)(F)C(F)(OC(F)(F)F)C(F)(F)F)C(F)(F)F` (centres unmarked) [CF3—O—CF(CF3)CF2O—CF(CF3) COONH4]: the “Log POW” value in data set [1] is recorded as 3.4.
Consider `N.O=C(O)C(F)(F)C(F)(F)C(F)(F)C(F)(F)C(F)(F)C(F)(F)C(F)(F)F` [PFOA, perfluoro octanoic acid ammonium], for which the “Log POW” value in data set [2] is recorded as 3.5.
